{
  "source": "paper PMC11881906",
  "about": "“Development of xanthone derivatives as effective broad-spectrum antimicrobials: Disrupting cell wall and inhibiting DNA synthesis” (Science Advances, 2025)",
  "key": {"[1]": {"system": "P. aeruginosa ATCC 9027", "assay": "Serial passage resistance induction", "type": "cell-based, Pseudomonas aeruginosa", "conditions": "20-day passages at 0.5× MIC", "method": "The bacteria were grown in a medium containing 0.5× MIC of each compound to prepare the bacterial suspension for the next MIC determination. The MICs were then recorded after incubation at 37°C for 24 hours. Daily passages were continued until the initial MIC increased by more than fourfold. The stability of acquired resistance was investigated by MIC determination and repeated for 20 days."}, "[2]": {"system": "E. coli ATCC 25922", "assay": "RNA-seq transcriptome response", "type": "cell-based, Escherichia coli", "conditions": "4× MIC, 2 hours", "method": "After exposure, 1-ml aliquots of cells were immediately pelleted at 4°C by centrifugation for 2 min at 2000 rpm. The supernatants were removed and immediately frozen in liquid nitrogen. The samples were stored at −80°C for later total RNA isolation. Total RNA was extracted using the bacterial RNA kit (Omega Bio-Tek, USA) according to the manufacturer’s instructions. The RNA integrity number values were obtained to assess RNA quality using an Agilent Genomics 2200 Tape Station instrument.\nA total amount of 2 to 5 ng of the RNA per sample was executed as the input material to construct each cDNA library for RNA-seq using the NEBNext Ultra Directional RNA Library prep kit from Illumina. The quality of the resulting libraries was checked using Agilent High Sensitivity DNA chips to ensure proper library size distribution and the absence of small adapters.\nRead mapping was aligned using Bowtie2 ([74]). HTSeq v0.6.1 was used for quantification of expression levels ([75]). DESeq2 on the R package (v1.12.4) was used to calculate DEGs. Differential expression was computed using edgeR: exactTest for each treatment versus the untreated control ([76]). The E. coli database used for mapping was GCF_017357505.1_ASM1735750v1_genomic.fna. Both the GO and KEGG (KEGG Ortholog database) enrichment analyses were done with the Fisher’s exact test. All P values were adjusted with the Benjamini-Hochberg procedure to generate false discovery rates (adjusted P values). GO enrichment analysis was carried out using the clusterProfiler package on the R platform ([77]). KEGG pathway mapping and figure generation were performed with the PathView website ([78]). COG of protein databases were searched with an E value of 1e^-5. For hierarchal clustering analysis of gene expression, the gene expression levels were normalized to z scores of log10 (FPKM + 1), where FPKM is fragments per kilobase per million. For hierarchal clustering analysis of the regulation of transcription factors, the unweighted pair group method with arithmetic mean (UPGMA) method was used as the clustering method. […] Volcano plots were generated by plot_volcano from soothsayer (https://github.com/jolespin/soothsayer) in Python v.3.6.6. Directed networks were constructed and plotted using NetworkX and Matplotlib Python packages, respectively. Hierarchical clustering analysis and heatmap calculation were performed with the pheatmap package on the R platform. The umap package on the R platform was used for uniform manifold approximation and projection (UMAP) analysis of FPKM vectors of each transcriptome. The figures were created via the ggplot2 package ([79])."}, "[3]": {"system": "MRSA N315", "assay": "MIC, broth microdilution", "type": "cell-based", "conditions": "Staphylococcus aureus, 24-hour incubation, MHB, read-out: MIC90 MRSA N315", "method": "(§1) MIC was determined using the broth microdilution method in accordance with Clinical and Laboratory Standards Institute guidelines. All compounds were dissolved in dimethyl sulfoxide (DMSO; final DMSO concentration of less than 0.5%) and sterile double-distilled water and then diluted with Mueller-Hinton broth (MHB). Each compound’s stock solution was serially twofold diluted, resulting in concentrations ranging from 0.39 to 100 μg/ml, and thereafter added to sterile 96-well plates. All bacterial cell suspensions were adjusted in MHB to attain a starting inoculum of 1 × 10^6 cells/ml. A total of 100 μl volume of the bacterial suspension was then added to each well. Following a 24-hour incubation at 37°C, the optical density at 600 nm (OD600) was confirmed by measuring absorbance at 600 nm with a BioTek microplate reader. […] All measurements were repeated three times with duplicates each time."}, "[4]": {"system": "MRSA NCTC 10442", "assay": "MIC, broth microdilution", "type": "cell-based", "conditions": "Staphylococcus aureus; 24-hour incubation, MHB; read-out: MIC90 MRSA NCTC 10442", "method": "as §1"}, "[5]": {"system": "S. aureus ATCC 29213", "assay": "MIC, broth microdilution", "type": "cell-based", "conditions": "Staphylococcus aureus, ATCC29213, 24 h, 24-hour incubation, MHB; read-out: MIC90 S. aureus ATCC 29213", "method": "as §1"}, "[6]": {"system": "E. coli ATCC 25922", "assay": "MIC, broth microdilution", "type": "cell-based, Escherichia coli", "conditions": "Escherichia coli, ATCC25922, 24 h, 24-hour incubation, MHB; read-out: MIC90 E. coli ATCC 25922", "method": "as §1"}, "[7]": {"system": "rabbit erythrocytes", "assay": "Hemolysis assay", "type": "cell-based", "conditions": "concentration causing 50% hemolysis of red blood cells; 1 hour, 37°C", "method": "The hemolytic activity of antimicrobial agents was investigated as previously described ([70]). Briefly, the rabbit erythrocytes were centrifuged at 2500 rpm for 3 min before being washed twice with sterile phosphate-buffered saline (PBS) (pH 7.4). Subsequently, the erythrocytes were diluted with PBS to a final concentration of 8% (v/v). The DMSO-dissolved compounds were twofold serially diluted in PBS to achieve a final concentration with DMSO less than 0.5%. […] Sterile PBS and 0.2% Triton X-100 were used as negative and positive controls, respectively. After 1 hour of incubation at 37°C, the tested samples were centrifuged at 2500 rpm for 5 min, and aliquots of the supernatant were added to 96-well microplates. The hemoglobin release was determined by measuring the absorbance at 576 nm using a BioTek multimode reader. The percentage of hemolytic activity was calculated using the following formula: Hemolysis rate (%) = [OD576 (compound) − OD576 (PBS)]/[OD576 (Triton X-100) − OD576 (PBS)] × 100. All measurements were repeated three times with duplicates each time."}, "[8]": {"system": "tested strains (Gram-positive and Gram-negative bacteria)", "assay": "MIC, summary over the tested strains", "type": "cell-based", "conditions": "24 h, read-out: MICs against the tested strains", "method": "as §1"}, "[9]": {"conditions": "not the whole compound, cited from earlier work"}},
  "note": "Like-named read-outs stand apart in the source and are kept apart here.",
  "data": [
    {"smiles": "O=C(O)c1cn(C2CC2)c2cc(N3CCNCC3)c(F)cc2c1=O", "note": "[CPF, ciprofloxacin, reference compound]", "values": [
      {"measurement": "increase in MIC values during passages", "setting": "[1]", "result": "~64", "unit": "fold"},
      {"measurement": "genes expressed", "setting": "[2]", "result": 4682, "unit": "genes"},
      {"measurement": "Log2FC dnaE (DNA polymerase III subunit alpha)", "setting": "[2]; vs untreated", "result": 1.7739},
      {"measurement": "Log2FC dnaN (DNA polymerase III subunit beta)", "setting": "[2]; vs untreated", "result": 3.0865},
      {"measurement": "Log2FC dnaQ (DNA polymerase III subunit epsilon)", "setting": "[2]; vs untreated", "result": 1.3670},
      {"measurement": "Log2FC dnaT (primosomal protein DnaT)", "setting": "[2]; vs untreated", "result": 2.2444},
      {"measurement": "Log2FC dnaX (DNA polymerase III subunit gamma/tau)", "setting": "[2]; vs untreated", "result": 1.7268},
      {"measurement": "Log2FC gyrA (DNA topoisomerase (ATP-hydrolyzing) subunit A)", "setting": "[2]; vs untreated", "result": 2.2544},
      {"measurement": "Log2FC gyrB (DNA topoisomerase (ATP-hydrolyzing) subunit B)", "setting": "[2]; vs untreated", "result": 2.4048},
      {"measurement": "Log2FC holB (DNA polymerase III subunit delta')", "setting": "[2]; vs untreated", "result": 1.9890},
      {"measurement": "Log2FC holD (DNA polymerase III subunit psi)", "setting": "[2]; vs untreated", "result": 2.4551},
      {"measurement": "Log2FC parC (DNA topoisomerase IV subunit A)", "setting": "[2]; vs untreated", "result": 1.5215},
      {"measurement": "Log2FC parE (DNA topoisomerase IV subunit B)", "setting": "[2]; vs untreated", "result": 2.4557},
      {"measurement": "Log2FC priA (primosomal protein N')", "setting": "[2]; vs untreated", "result": 2.8529},
      {"measurement": "Log2FC priB (primosomal replication protein N)", "setting": "[2]; vs untreated", "result": 3.5288},
      {"measurement": "Log2FC priC (primosomal replication protein N'')", "setting": "[2]; vs untreated", "result": 1.7101},
      {"measurement": "Log2FC recA (recombinase RecA)", "setting": "[2]; vs untreated", "result": 6.2751},
      {"measurement": "Log2FC recF (DNA replication/repair protein RecF)", "setting": "[2]; vs untreated", "result": 2.2046},
      {"measurement": "Log2FC recG (ATP-dependent DNA helicase RecG)", "setting": "[2]; vs untreated", "result": 1.1384},
      {"measurement": "Log2FC recJ (single-stranded-DNA-specific exonuclease RecJ)", "setting": "[2]; vs untreated", "result": 1.9882},
      {"measurement": "Log2FC recO (DNA repair protein RecO)", "setting": "[2]; vs untreated", "result": 1.9736},
      {"measurement": "Log2FC recR (recombination mediator RecR)", "setting": "[2]; vs untreated", "result": 1.8874},
      {"measurement": "Log2FC ruvA (Holliday junction branch migration protein RuvA)", "setting": "[2]; vs untreated", "result": 2.8598},
      {"measurement": "Log2FC ruvB (Holliday junction branch migration DNA helicase RuvB)", "setting": "[2]; vs untreated", "result": 3.4475},
      {"measurement": "Log2FC ruvC (crossover junction endodeoxyribonuclease RuvC)", "setting": "[2]; vs untreated", "result": 1.8052},
      {"measurement": "Log2FC ssb1 (single-stranded DNA-binding protein SSB1)", "setting": "[2]; vs untreated", "result": 2.6468},
      {"measurement": "down-regulated genes", "setting": "[2]; vs untreated", "result": 130, "unit": "genes"},
      {"measurement": "up-regulated genes", "setting": "[2]; vs untreated", "result": 2246, "unit": "genes"},
      {"measurement": "differentially expressed genes", "setting": "[2]; vs untreated, P < 0.05, absolute log2 fold change > 1", "result": 2376, "unit": "genes"}
    ]},
    {"smiles": "CC(C)=CCOc1cc(OCCCN)cc2oc3cc(OCCCN)ccc3c(=O)c12", "note": "[XT07]", "values": [
      {"measurement": "MIC90", "setting": "[3]", "result": 12.5, "unit": "µg/mL"},
      {"measurement": "MIC90", "setting": "[4]", "result": 12.5, "unit": "µg/mL"},
      {"measurement": "MIC90", "setting": "[5]", "result": 12.5, "unit": "µg/mL"},
      {"measurement": "MIC90", "setting": "[6]", "result": 25, "unit": "µg/mL"},
      {"measurement": "HC50", "setting": "[7]", "result": ">200", "unit": "µg/mL"},
      {"measurement": "MIC", "setting": "[8]", "result": "12.5 to 50", "unit": "µg/mL"},
      {"measurement": "pKa", "setting": "[9]; for the free primary amine group", "result": 10.54}
    ]},
    {"smiles": "CC(C)=CCOc1cc(OCCCN2CCSCC2)cc2oc3cc(OCCCN4CCSCC4)ccc3c(=O)c12", "note": "[XT11]", "values": [
      {"measurement": "MIC90", "setting": "[3]", "result": "> 50", "unit": "µg/mL"},
      {"measurement": "MIC90", "setting": "[4]", "result": "> 50", "unit": "µg/mL"},
      {"measurement": "MIC90", "setting": "[5]", "result": "> 50", "unit": "µg/mL"},
      {"measurement": "MIC90", "setting": "[6]", "result": "> 50", "unit": "µg/mL"},
      {"measurement": "HC50", "setting": "[7]", "result": ">200", "unit": "µg/mL"},
      {"measurement": "MIC", "setting": "[8]", "result": "> 50", "unit": "µg/mL"},
      {"measurement": "pKa", "setting": "[9]; for the free thiomorpholine group", "result": 9.0}
    ]}
  ]
}
